{"source": "patent US20250020667A1", "about": "“DEVELOPMENT OF MICROBIAL BIOSENSORS FOR INTESTINAL INFLAMMATION” (Baylor College of Medicine, priority 2017, published 2025)", "key": {"[1]": {"test_system": "L. reuteri acyl carrier protein dehydratase promoter GFP biosensor", "test": "Induction of promoter-GFP biosensor, GFP by flow cytometry", "type": "cell-based, Lactobacillus reuteri", "conditions": "co-cultured with TPEN vs uninduced sensor", "description": "All constructs were assembled via the Gibson Reaction (NEBiosciences).\nAll flow runs were performed in 96 well plates.\nTPEN Induction—TPEN, a synthetic zinc chelator, induction assays were performed as calprotectin induction, with TPEN replacing calprotectin. Growth condition were also identical. Media ratios differed. In the TPEN studies, 180 uL of media was used with 20 uL cells and 2 uL of TPEN in absolute ethanol."}, "[2]": {"test_system": "E. coli Nissle L36/L31 ribosomal accessory protein promoter (ykgMO) GFP biosensor", "test": "Induction of promoter-GFP biosensor, GFP by flow cytometry", "type": "cell-based, Escherichia coli", "source_text": "(§1) Initial Data. […] Sequences were obtained via Illumina NextSeq and mapped against E. coli Nissle 1917 reference genome.\n(§2) Initial test constructs consisted of the intergenic promoter regions for the following genes: E. coli Nissle—sulA, entCE (enterobactin synthase operon), ykgMO (paralog for L36/L31 ribosomal accessory protein), ABC Transporter (WP_000977398.1); L. reuteri—ABC Transporter operon (EGC15836.1), Acyl carrier protein dehydratase (EGC15031.1), argininosuccinate lyase (EGC15288.1). Each promoter region was cloned directly upstream of a green fluorescent protein cassette. For L. reuteri, the eGFP cassette was used while the sGFP cassette was used for E. coli. All constructs were assembled via the Gibson Reaction (NEBiosciences)."}, "[3]": {"test_system": "E. coli Nissle enterobactin synthase promoter GFP biosensor", "test": "Induction of promoter-GFP biosensor, GFP by flow cytometry", "type": "cell-based, Escherichia coli", "source_text": "as §1, §2"}, "[4]": {"test_system": "L. reuteri ABC transporter promoter GFP biosensor", "test": "Metal complementation assay (metal added to sensors co-cultured with calprotectin)", "type": "cell-based, Lactobacillus reuteri", "experimental": "Metal complementation assays—Mixes were similar to the calprotectin induction assays with the addition of zinc (II) sulfate, manganese (II) sulfate, or iron (II) chloride. Concentrations of metals were added in excess of 1×, 10×, and 100× the binding capacity of 40 ug/mL (1.4 uM) calprotectin. In total, 0, 4 uM, 40 uM, and 400 uM of zinc and iron were added and 0, 2 uM, 20 uM, and 200 uM of manganese was added. Slightly higher than equimolar amounts were added to correct for possible pipetting error. Cells were grown for the same amount of time as in the calprotectin induction assays.\nFlow cytometry—˜10-40 uL of cells were added to 1 mL of PBS sheath fluid and run through the flow cytometer for a total of 10000 events. Cells were thresholded by forward/side scatter, and.fsc files were analyzed with the FlowCal software, developed by the Jeff Tabor Lab. In short, FlowCal identifies the densest region of cells on the associated scatterplot, and analyzes the fluorescent output of 30% of the cells in this region so as to evaluate a homogenous dataset and remove possible outliers. […] In this case, GFP output is reported as molecules of equivalent fluorophores (MEF), and was evaluated on the FL1 channel."}, "[5]": {"test_system": "L. reuteri acyl carrier protein dehydratase promoter GFP biosensor", "conditions": "co-cultured with 40 ug/mL calprotectin"}, "[6]": {"test_system": "E. coli Nissle enterobactin synthase promoter GFP biosensor"}, "[7]": {"test_system": "E. coli Nissle L36/L31 ribosomal accessory protein promoter GFP biosensor", "conditions": "sensors co-cultured with calprotectin"}, "[8]": {"test_system": "Lactobacillus reuteri PTA 6475", "test": "Minimum inhibitory concentration (MIC) assay, overnight growth, OD600", "type": "cell-based", "conditions": "L. reuteri", "description": "(§3) Minimum inhibitory concentration (MIC) assay—Escherichia coli Nissle 1917 and Lactobacillus reuteri PTA 6475 were used as vectors for biosensor construction. For both strains, bacteria was grown overnight in media (MRS broth for L. reuteri; LB broth for E. coli). From the overnight culture, 10^4 bacterial cells in 38 uL media (LDM4 for L. reuteri; LB broth for E. coli) were seeded into a 96 well-plate. 62 uL of calprotectin in buffer (20 mM Tris (pH 7.5), 100 mM NaCl, 10 mM beta-mercaptoethanol, 3 mM CaCl2) was added in 2-fold dilutions. Recombinant human calprotectin was supplied by Dr. Walter Chazin of Vanderbilt University. Bacteria was allowed to grow overnight, and OD600 values were taken the following morning.\n(§4) RNA Isolation—Sub-inhibitory concentrations of calprotectin were used for the calprotectin induction. […] Cells were grown overnight, and then back-diluted 1:100 into 5 mL of media (LDM4 for L. reuteri; LB Broth for E. coli). Cells were grown up to log phase, and then the sub-inhibitory amount of calprotectin was added to the tube in calprotectin buffer. Growth continued for 30 total minutes in the presence of the calprotectin, and then transcription was frozen by addition of ice cold methanol for L. reuteri and ice-cold ethanol for E. coli Nissle. Cells were collected via centrifugation, and then RNA was isolated using the QIAgen RNEasy kit. Slight modifications were included. For L. reuteri, mechanical cell-wall disruption was used via bead-beating. For E. coli, lysozyme/proteinase K was used to disrupt the gram-negative cell wall. RNA was quantified and tested for purity using a Nanodrop.\n(§5) Both prospective vector strains (Lactobacillus reuteri and Escherichia coli Nissle) were grown overnight in the presence of 2-fold dilutions of calprotectin in order to deduce minimum inhibitory concentrations of calprotectin on the microbes."}, "[9]": {"test_system": "Escherichia coli Nissle 1917", "test": "Minimum inhibitory concentration (MIC) assay, overnight growth, OD600", "type": "cell-based", "conditions": "E. coli Nissle", "description": "as §3, §4, §5"}, "[10]": {"test_system": "Lactobacillus reuteri ABC transporter promoter GFP sensor", "conditions": "40 ug/mL calprotectin vs uninduced sensor", "source_text": "as §2"}, "[11]": {"conditions": "co-cultured with 1.5 uM TPEN vs media only"}, "[12]": {"conditions": "co-cultured with 40 ug/mL calprotectin"}, "[13]": {"conditions": "overnight growth, 2-fold dilutions"}, "[14]": {"conditions": "40 ug/mL calprotectin vs un-induced"}}, "note": "Counter-ions that a name gives are not always drawn."}
{"molecule": "c1ccc(CN(CCN(Cc2ccccn2)Cc2ccccn2)Cc2ccccn2)nc1", "note": "[TPEN, N,N,N′,N′-tetrakis(2-pyridinylmethyl)-1,2-ethanediamine]", "values": [{"measurement": "fold increase in GFP expression", "setting": "[1]", "value": 2.5, "unit": "fold"}, {"measurement": "fold increase in GFP expression", "setting": "[2]; [11]", "value": 4.5, "unit": "fold"}, {"measurement": "fold increase in GFP expression", "setting": "[3]; [11]", "value": 5.6, "unit": "fold"}]}
{"molecule": "[Cl][Fe][Cl]", "note": "[iron, iron (II) chloride]", "values": [{"measurement": "iron excess required to turn off promoter activity", "setting": "[4]; × the binding capacity of 40 ug/mL calprotectin, possibly a cell survival issue", "value": 100, "unit": "×"}]}
{"molecule": "O=S(=O)([O-])[O-].[Mn+2]", "note": "[manganese, manganese (II) sulfate]", "values": [{"measurement": "effect of added manganese on sensor activity", "setting": "[4]; manganese at 100× binding capacity of 40 ug/mL calprotectin", "value": "did not fully ablate sensor activity"}]}
{"molecule": "[Zn+2]", "note": "[zinc, zinc (II) sulfate]", "values": [{"measurement": "zinc concentration sufficient to totally abolish promoter activity", "setting": "[4]; [12]", "value": 4, "unit": "µM"}, {"measurement": "zinc concentration sufficient to totally abolish promoter activity", "setting": "[5]", "value": 4, "unit": "µM"}, {"measurement": "zinc concentration sufficient to totally abolish promoter activity", "setting": "[6]; [12]", "value": 4, "unit": "µM"}, {"measurement": "effect of added zinc on calprotectin-induced increase in GFP expression", "setting": "[6]; sensors co-cultured with calprotectin", "value": "abolishes the calprotectin-induced increase in GFP expression"}, {"measurement": "effect of added zinc on calprotectin-induced increase in GFP expression", "setting": "[7]", "value": "abolishes the calprotectin-induced increase in GFP expression"}]}
{"molecule": "calprotectin: neutrophil-source antimicrobial peptide heterodimer that sequesters zinc, manganese and iron; recombinant human, supplied by Dr. Walter Chazin (protein, UniProt P05109 1-93; P06702 1-114, looked up) Protein S100-A8: MLTELEKALNSIIDVYHKYSLIKGNFHAVYRDDLKKLLETECPQYIRKKGADVWFKELDINTDGAVNFQEFLILVIKMGVAAHKKSHEESHKE Protein S100-A9: MTCKMSQLERNIETIINTFHQYSVKLGHPDTLNQGEFKELVRKDLQNFLKKENKNEKVIEHIMEDLDTNADKQLSFEEFIMLMARLTWASHEKMHEGDEGPGHHHKPGLGEGTP", "values": [{"measurement": "highest concentration that did not inhibit overnight growth (sub-inhibitory concentration)", "setting": "[8]", "value": 15.625, "unit": "µg/mL"}, {"measurement": "minimum inhibitory concentration (growth inhibited at this concentration and above)", "setting": "[8]; [13]", "value": 31.25, "unit": "µg/mL"}, {"measurement": "highest concentration that did not inhibit overnight growth (sub-inhibitory concentration)", "setting": "[9]", "value": 125, "unit": "µg/mL"}, {"measurement": "minimum inhibitory concentration (growth inhibited at this concentration and above)", "setting": "[9]; [13]", "value": 250, "unit": "µg/mL"}, {"measurement": "fold increase in GFP expression", "setting": "[10]", "value": 4.93, "unit": "fold"}, {"measurement": "fold increase in GFP expression", "setting": "[2]; [14]", "value": 2.6, "unit": "fold"}, {"measurement": "fold increase in GFP expression", "setting": "[3]; [14]", "value": 1.8, "unit": "fold"}]}
